Reference: patent US10004701B2, “Methods and compositions for treating infection” (UNIVERSITY OF ROCHESTER, priority 2012, dated 2018)
Counter-ions that a name gives are not always drawn. Like-named read-outs stand apart in the source and are kept apart here.

Key:
Experiment in all cases: AK assay 384-well format, Prestwick library screening
[1] = system: E. faecium; assay type: cell-based, Enterococcus faecium; conditions: 50 μM final drug concentration; for fold induction at 50 µM: Enterococcus faecium, 3 h
[2] = system: K. pneumoniae; assay type: cell-based, Klebsiella pneumoniae; conditions: 50 μM final drug concentration; for fold induction at 50 µM: Klebsiella pneumoniae, 3 h
[3] = system: E. coli; assay type: cell-based, Escherichia coli; conditions: 50 μM final drug concentration; for fold induction at 50 µM: Escherichia coli, 3 h
[4] = system: A. baumannii strain 98-37-09; assay type: cell-based, Acinetobacter baumannii; conditions: 50 μM final drug concentration; for fold induction at 50 µM: Acinetobacter baumannii, 983709, 3 h
[5] = system: E. cloacae; assay type: cell-based, Enterobacter cloacae; conditions: 50 μM final drug concentration; for fold induction at 50 µM: Enterobacter cloacae, 3 h
[6] = system: P. aeruginosa; assay type: cell-based, Pseudomonas aeruginosa; conditions: 50 μM final drug concentration; for fold induction at 50 µM: Pseudomonas aeruginosa, 3 h
[7] = system: S. aureus strain USA300-0114; assay type: cell-based, Staphylococcus aureus; conditions: 50 μM final drug concentration; for fold induction at 50 µM: Staphylococcus aureus, USA300, 3 h
[8] = planktonic E. faecium, cutoff for positive-scoring molecules 3-fold increase, read-out: AK-based Prestwick Library Screening Results, E. faecium (increase in extracellular AK activity)
[9] = planktonic K. pneumoniae, cutoff for positive-scoring molecules 3-fold increase, read-out: AK-based Prestwick Library Screening Results, K. pneumoniae (increase in extracellular AK activity)
[10] = planktonic E. coli, cutoff for positive-scoring molecules 3-fold increase, read-out: AK-based Prestwick Library Screening Results, E. coli (increase in extracellular AK activity)
[11] = planktonic A. baumannii, cutoff for positive-scoring molecules 3-fold increase, read-out: AK-based Prestwick Library Screening Results, A. baumannii (increase in extracellular AK activity)
[12] = planktonic E. cloacae, cutoff for positive-scoring molecules 3-fold increase, read-out: AK-based Prestwick Library Screening Results, E. cloacae (increase in extracellular AK activity)
[13] = planktonic P. aeruginosa, cutoff for positive-scoring molecules 3-fold increase, read-out: AK-based Prestwick Library Screening Results, P. aeruginosa (increase in extracellular AK activity)
[14] = planktonic S. aureus, cutoff for positive-scoring molecules 3-fold increase, read-out: AK-based Prestwick Library Screening Results, S. aureus (increase in extracellular AK activity)
[15] = planktonic, […], read-out: AK-based Prestwick Library Screening Results, E. faecium (fold increase in extracellular AK activity)
[16] = planktonic, […], read-out: AK-based Prestwick Library Screening Results, K. pneumoniae (fold increase in extracellular AK activity)
[17] = planktonic, […], read-out: AK-based Prestwick Library Screening Results, E. coli (fold increase in extracellular AK activity)
[18] = planktonic, […], read-out: AK-based Prestwick Library Screening Results, A. baumannii (fold increase in extracellular AK activity)
[19] = planktonic, […], read-out: AK-based Prestwick Library Screening Results, E. cloacae (fold increase in extracellular AK activity)
[20] = planktonic, […], read-out: AK-based Prestwick Library Screening Results, P. aeruginosa (fold increase in extracellular AK activity)
[21] = planktonic, […], read-out: AK-based Prestwick Library Screening Results, S. aureus (fold increase in extracellular AK activity)
[22] = planktonic, cutoff for positive-scoring molecules 3-fold increase
[23] = planktonic E. faecium, positive cutoff 3-fold increase, read-out: AK-based Prestwick library screening result, E. faecium (fold increase in extracellular AK activity)
[24] = planktonic K. pneumoniae, positive cutoff 3-fold increase, read-out: AK-based Prestwick library screening result, K. pneumoniae (fold increase in extracellular AK activity)
[25] = planktonic A. baumannii, positive cutoff 3-fold increase, read-out: AK-based Prestwick library screening result, A. baumannii (fold increase in extracellular AK activity)
[26] = planktonic E. cloacae, positive cutoff 3-fold increase, read-out: AK-based Prestwick library screening result, E. cloacae (fold increase in extracellular AK activity)
[27] = planktonic P. aeruginosa, positive cutoff 3-fold increase, read-out: AK-based Prestwick library screening result, P. aeruginosa (fold increase in extracellular AK activity)
[28] = planktonic S. aureus, positive cutoff 3-fold increase, read-out: AK-based Prestwick library screening result, S. aureus (fold increase in extracellular AK activity)
[29] = cutoff for positive-scoring molecules 3-fold increase, read-out: AK-based Prestwick Library Screening Results, E. faecium (fold increase in extracellular AK activity)
[30] = cutoff for positive-scoring molecules 3-fold increase, read-out: AK-based Prestwick Library Screening Results, K. pneumoniae (fold increase in extracellular AK activity)
[31] = cutoff for positive-scoring molecules 3-fold increase, read-out: AK-based Prestwick Library Screening Results, E. coli (fold increase in extracellular AK activity)
[32] = cutoff for positive-scoring molecules 3-fold increase, read-out: AK-based Prestwick Library Screening Results, A. baumannii (fold increase in extracellular AK activity)
[33] = cutoff for positive-scoring molecules 3-fold increase, read-out: AK-based Prestwick Library Screening Results, E. cloacae (fold increase in extracellular AK activity)
[34] = cutoff for positive-scoring molecules 3-fold increase, read-out: AK-based Prestwick Library Screening Results, P. aeruginosa (fold increase in extracellular AK activity)
[35] = cutoff for positive-scoring molecules 3-fold increase, read-out: AK-based Prestwick Library Screening Results, S. aureus (fold increase in extracellular AK activity)

SMILES: CCc1cccc(CC)c1NC(=O)CN(CC(=O)O)CC(=O)O [Etifenin]
- fold induction at 50 µM [1, 8]: 0.9
- fold induction at 50 µM [2, 9]: 0.8
- fold induction at 50 µM [3, 10]: 1.1
- fold induction at 50 µM [4, 11]: 0.9
- fold induction at 50 µM [5, 12]: 1
- fold induction at 50 µM [6, 13]: 0.9
- fold induction at 50 µM [7, 14]: 0.5

SMILES: CCCCOC(=O)c1ccc(O)cc1 [Butylparaben]
- fold induction at 50 µM [1, 15]: 0.5
- fold induction at 50 µM [2, 16]: 0.4
- fold induction at 50 µM [3, 17]: 0.5
- fold induction at 50 µM [4, 18]: 0.6
- fold induction at 50 µM [5, 19]: 1
- fold induction at 50 µM [6, 20]: 0.6
- fold induction at 50 µM [7, 21]: 0.7

SMILES: CC(C)C(=O)Nc1ccc([N+](=O)[O-])c(C(F)(F)F)c1 [Flutamide]
- fold induction at 50 µM ([1]; 384-well format, […], read-out: AK-based Prestwick Library Screening Results, E. faecium (increase in extracellular AK activity)): 1
- fold induction at 50 µM ([2]; 384-well format, […], read-out: AK-based Prestwick Library Screening Results, K. pneumoniae (increase in extracellular AK activity)): 0.6
- fold induction at 50 µM ([3]; 384-well format, […], read-out: AK-based Prestwick Library Screening Results, E. coli (increase in extracellular AK activity)): 0.7
- fold induction at 50 µM ([4]; 384-well format, […], read-out: AK-based Prestwick Library Screening Results, A. baumannii (increase in extracellular AK activity)): 0.7
- fold induction at 50 µM ([5]; 384-well format, […], read-out: AK-based Prestwick Library Screening Results, E. cloacae (increase in extracellular AK activity)): 0.7
- fold induction at 50 µM ([6]; 384-well format, […], read-out: AK-based Prestwick Library Screening Results, P. aeruginosa (increase in extracellular AK activity)): 0.8
- fold induction at 50 µM ([7]; 384-well format, […], read-out: AK-based Prestwick Library Screening Results, S. aureus (increase in extracellular AK activity)): 0.4

SMILES: CN(N=O)C(=O)N[C@H]1C(O)O[C@H](CO)[C@@H](O)[C@@H]1O (mixture of isomers) [Streptozotocin]
- AK-based Prestwick Library Screening Results, E. faecium (fold increase in extracellular AK activity) [1, 22]: 2.6
- AK-based Prestwick Library Screening Results, K. pneumoniae (fold increase in extracellular AK activity) [2, 22]: 1.4
- AK-based Prestwick Library Screening Results, E. coli (fold increase in extracellular AK activity) [3, 22]: 0.7
- AK-based Prestwick Library Screening Results, A. baumannii (fold increase in extracellular AK activity) [4, 22]: 0.7
- AK-based Prestwick Library Screening Results, E. cloacae (fold increase in extracellular AK activity) [5, 22]: 0.7
- AK-based Prestwick Library Screening Results, P. aeruginosa (fold increase in extracellular AK activity) [6, 22]: 0.7
- AK-based Prestwick Library Screening Results, S. aureus (fold increase in extracellular AK activity) [7, 22]: 1.2

SMILES: COc1ccc2cc3[n+](cc2c1OC)CCc1cc2c(cc1-3)OCO2 [Berberine chloride]
- fold induction at 50 µM [1, 8]: 1
- fold induction at 50 µM [2, 9]: 0.7
- fold induction at 50 µM [3, 10]: 1
- fold induction at 50 µM [4, 11]: 0.9
- fold induction at 50 µM [5, 12]: 1.1
- fold induction at 50 µM [6, 13]: 0.9
- fold induction at 50 µM [7, 14]: 0.7

SMILES: CCOC(=O)[C@@](C)(N)Cc1ccc(O)c(O)c1 [Methyldopate hydrochloride]
- fold induction at 50 µM [1, 23]: 1.1
- fold induction at 50 µM [2, 24]: 1.2
- fold induction at 50 µM ([3]; planktonic E. coli, positive cutoff 3-fold increase, read-out: AK-based Prestwick library screening result, E. coli (fold increase in extracellular AK activity)): 1.2
- fold induction at 50 µM [4, 25]: 1.4
- fold induction at 50 µM [5, 26]: 1.8
- fold induction at 50 µM [6, 27]: 1.1
- fold induction at 50 µM [7, 28]: 1.2

SMILES: COc1cc(-c2ccc(=O)[nH]n2)ccc1OC(F)F [Zardaverine]
- fold induction at 50 µM [1, 23]: 1
- fold induction at 50 µM [2, 24]: 0.7
- fold induction at 50 µM ([3]; planktonic E. coli, […], read-out: AK-based Prestwick library screening result, E. coli (fold increase in extracellular AK activity)): 0.6
- fold induction at 50 µM [4, 25]: 0.7
- fold induction at 50 µM [5, 26]: 0.9
- fold induction at 50 µM [6, 27]: 0.7
- fold induction at 50 µM [7, 28]: 0.6

SMILES: CN(C)CCOC(=O)COc1ccc(Cl)cc1 [Meclofenoxate hydrochloride]
- fold induction at 50 µM [1, 15]: 1
- fold induction at 50 µM [2, 16]: 1
- fold induction at 50 µM [3, 17]: 1.2
- fold induction at 50 µM [4, 18]: 1
- fold induction at 50 µM [5, 19]: 1.4
- fold induction at 50 µM [6, 20]: 1.1
- fold induction at 50 µM [7, 21]: 1.2

SMILES: COC(=O)C1=CCCN(C)C1 [Arecoline hydrobromide]
- fold induction at 50 µM ([1]; planktonic E. faecium, 384-well, […], read-out: AK-based Prestwick Library Screening Results: E. faecium (increase in extracellular AK activity)): 0.9
- fold induction at 50 µM ([2]; planktonic K. pneumoniae, 384-well, […], read-out: AK-based Prestwick Library Screening Results: K. pneumoniae (increase in extracellular AK activity)): 0.4
- fold induction at 50 µM ([3]; planktonic E. coli, 384-well, […], read-out: AK-based Prestwick Library Screening Results: E. coli (increase in extracellular AK activity)): 0.4
- fold induction at 50 µM ([4]; planktonic A. baumannii, 384-well, […], read-out: AK-based Prestwick Library Screening Results: A. baumannii (increase in extracellular AK activity)): 0.4
- fold induction at 50 µM ([5]; planktonic E. cloacae, 384-well, […], read-out: AK-based Prestwick Library Screening Results: E. cloacae (increase in extracellular AK activity)): 0.3
- fold induction at 50 µM ([6]; planktonic P. aeruginosa, 384-well, […], read-out: AK-based Prestwick Library Screening Results: P. aeruginosa (increase in extracellular AK activity)): 0.4
- fold induction at 50 µM ([7]; planktonic S. aureus, 384-well, […], read-out: AK-based Prestwick Library Screening Results: S. aureus (increase in extracellular AK activity)): 0.4

SMILES: CC1CC(OC(=O)C(O)c2ccccc2)CC(C)(C)N1C (stereo not drawn) [Eucatropine hydrochloride]
- fold induction at 50 µM [1, 29]: 1.1
- fold induction at 50 µM [2, 30]: 0.9
- fold induction at 50 µM [3, 31]: 1.2
- fold induction at 50 µM [4, 32]: 1.1
- fold induction at 50 µM [5, 33]: 1.6
- fold induction at 50 µM [6, 34]: 1.1
- fold induction at 50 µM [7, 35]: 1.3

SMILES: CC(C)NCC(O)c1ccc2ccccc2c1 (stereo not drawn) [Pronethalol hydrochloride]
- fold induction at 50 µM [1, 29]: 0.9
- fold induction at 50 µM [2, 30]: 0.6
- fold induction at 50 µM [3, 31]: 0.7
- fold induction at 50 µM [4, 32]: 0.6
- fold induction at 50 µM [5, 33]: 0.9
- fold induction at 50 µM [6, 34]: 0.6
- fold induction at 50 µM [7, 35]: 0.6

SMILES: CO[C@H](C)[C@](O)(C(=O)OCC1=CCN2CC[C@H](O)[C@@H]12)C(C)C [Heliotrine]
- fold induction at 50 µM [1, 15]: 1
- fold induction at 50 µM [2, 16]: 1
- fold induction at 50 µM [3, 17]: 1.2
- fold induction at 50 µM [4, 18]: 1
- fold induction at 50 µM [5, 19]: 1.7
- fold induction at 50 µM [6, 20]: 1
- fold induction at 50 µM [7, 21]: 1.4
